Literature values, collected in patent US20200309767A1, “HIGH-THROUGHPUT IMAGING-BASED METHODS FOR PREDICTING CELL-TYPE-SPECIFIC TOXICITY OF XENOBIOTICS WITH DIVERSE CHEMICAL STRUCTURES” (priority 2015, published 2020).
Structures can show the parent of a compound that is named as a salt. Where two headings read alike, the source gives them in different places.

How the values were obtained:
[1] = tested on: lung; settings: cited from earlier work
[2] = tested on: human proximal tubular cells (PTCs); settings: cited from earlier work
[3] = tested on: liver; settings: in vivo; cited from earlier work
[4] = tested on: human kidney; settings: cited from earlier work
[5] = known in vivo group, Toxic / Non-toxic
[6] = known human kidney toxicity flag 1/0

Row | Compound | Pulmonotoxic ([1]; human, in vivo) | PTC Toxicity ([2]; human, in vivo) | PTC-toxic ([2]; human, in vivo) | Hepatotoxic [3] | Nephrotoxic ([4]; in vivo) | other results
1 | C=C(Cl)Cl [Vinylidene chloride] | 0 |  |  |  |  | 
2 | CC(C)Cc1ccc(C(C)C(=O)O)cc1 (centres unmarked) [Ibuprofen] |  | Non-toxic | 0 | 1 |  | 
3 | C[C@@H]1C[C@H]2[C@@H]3CCC4=CC(=O)C=C[C@]4(C)[C@@]3(F)[C@@H](O)C[C@]2(C)[C@@]1(O)C(=O)CO [Dexamethasone] |  | Non-toxic | 0 | 0 | 0 | 
4 | COc1ccc(C[C@H](N)C(=O)N[C@H]2[C@@H](O)[C@H](n3cnc4c(N(C)C)ncnc43)O[C@@H]2CO)cc1 [Puromycin] |  | Toxic | 1 | 1 | 1 | 
5 | CC(=O)OCC1=C(C(=O)O)N2C(=O)[C@@H](NC(=O)CCC[C@@H](N)C(=O)O)[C@H]2SC1 [Cephalosporin C] |  | Toxic | 1 | 0 | 1 | 
6 | [Cd+2].[Cl-].[Cl-] [Cadmium(II) chloride] |  |  |  | 1 |  | Pulmonotoxic ([1]; known toxicity flag 1/0): 1; PTC Toxicity [2, 5]: Toxic; PTC-toxic ([2]; known toxicity flag 1/0): 1; Nephrotoxic [4, 6]: 1
7 | COc1cccc2c1cc([N+](=O)[O-])c1c(C(=O)O)cc3c(c12)OCO3 [Aristolochic acid] |  |  |  | 1 |  | PTC Toxicity [2, 5]: Toxic; PTC-toxic ([2]; known toxicity flag 1/0): 1; Nephrotoxic [4, 6]: 1
8 | CC(=O)Nc1ccc(O)cc1 [Acetaminophen] |  | Non-toxic | 0 | 1 | 1 | 
9 | CCOc1ccc(NC(C)=O)cc1 [Phenacetin] |  | Non-toxic |  |  |  | 
10 | [Cl-].[Na+] [Sodium chloride] | 0 |  |  |  |  | 
11 | OC[C@@H](O)[C@@H](O)[C@H](O)[C@@H](O)CO [D-sorbitol] | 0 |  |  |  |  | 
12 | CC(C)[C@H](N)C(=O)OCCOCn1cnc2c(=O)[nH]c(N)nc21 [Valacyclovir] |  | Non-toxic | 0 | 1 | 1 | 
13 | Cc1cc(C(C)(C)C)c(O)c(C(C)(C)C)c1 [Butylated hydroxytoluene] | 0 |  |  |  |  | 
14 | C[C@H]1C(=O)O[C@@H]2CCN3CC=C(COC(=O)[C@](C)(O)[C@]1(C)O)[C@H]23 [Monocrotaline] | 0 |  |  |  |  | 
15 | O=[As]O[As]=O (centres unmarked) [Arsenic(III) oxide] |  |  |  | 1 |  | PTC Toxicity [2, 5]: Toxic; PTC-toxic ([2]; known toxicity flag 1/0): 1; Nephrotoxic [4, 6]: 1
16 | C[C@H](Cn1cnc2c(N)ncnc21)OCP(=O)(O)O [Tenofovir] | 0 | Toxic | 1 | 0 | 1 | 
17 | C=CC(=C)CCC=C(C)C [β-Myrcene] | 0 |  |  |  |  | 
18 | CC1=C2C(=CO[C@H](C)[C@H]2C)C(O)=C(C(=O)O)C1=O [Citrinin] |  | Toxic | 1 | 0 | 1 | 
19 | NCC(=O)O [Glycine] |  | Non-toxic | 0 | 0 | 0 | 

Row | Compound | Pulmonotoxic ([1]; human, in vivo) | PTC Toxicity ([2]; human, in vivo) | PTC-toxic ([2]; human, in vivo) | Hepatotoxic [3] | Nephrotoxic ([4]; in vivo) | other results
20 | COc1ccc2[nH]cc(CCNC(C)=O)c2c1 [Melatonin] |  | Non-toxic |  |  |  | 
21 | Nc1ccc(N)cc1 [p-Phenylenediamine] | 1 |  |  |  |  | 
22 | C=CC[C@@H]1/C=C(\C)C[C@H](C)C[C@H](OC)[C@H]2O[C@@](O)(C(=O)C(=O)N3CCCC[C@H]3C(=O)O[C@H](/C(C)=C/[C@@H]3CC[C@@H](O)[C@H](OC)C3)[C@H](C)[C@@H](O)CC1=O)[C@H](C)C[C@@H]2OC [Tacrolimus] |  | Toxic | 1 | 0 | 1 | 
23 | OCCOCCOCCO [Triethylene glycol] | 0 |  |  |  |  | 
24 | NC(=O)N1c2ccccc2C=Cc2ccccc21 [Carbamazepine] | 1 |  |  |  |  | 
25 | O=C(Cc1cccs1)N[C@@H]1C(=O)N2C(C(=O)[O-])=C(C[n+]3ccccc3)CS[C@H]12 [Cephaloridine] |  | Toxic | 1 | 0 | 1 | 
26 | CN(CCCC(=O)c1cccnc1)N=O [NNK] |  |  |  |  |  | Pulmonotoxic ([1]; known toxicity flag 1/0): 1
27 | Cc1ccnc2c1NC(=O)c1cccnc1N2C1CC1 [Nevirapine] | 0 |  |  |  |  | 
28 | N[C@@H](Cc1cc(I)c(Oc2ccc(O)c(I)c2)c(I)c1)C(=O)O [Triiodothyronine] |  | Non-toxic |  |  |  | 
29 | CN(C)C(=N)N=C(N)N [Metformin hydrochloride] |  |  |  | 0 | 1 | 
30 | Bleomycin sulfate | 1 |  |  |  |  | 
31 | CC(=O)OCC1=C(C(=O)O)N2C(=O)[C@@H](NC(=O)Cc3cccs3)[C@H]2SC1 [Cephalothin] |  | Toxic | 1 | 0 | 1 | 
32 | Cl[C@H]1[C@H](Cl)[C@@H](Cl)[C@@H](Cl)[C@H](Cl)[C@H]1Cl [Lindane] |  | Non-toxic | 0 | 0 | 1 | 
33 | C[C@H]1O[C@H](O[C@H]2[C@H](O)[C@@H](O)[C@@H](O[C@H]3[C@H](O)[C@@H](O)C(O)O[C@@H]3CO)O[C@@H]2CO)[C@H](O)[C@@H](O)[C@@H]1N[C@H]1C=C(CO)[C@@H](O)[C@H](O)[C@H]1O (some centres unmarked) [Acarbose] |  | Non-toxic |  |  |  | PTC-toxic ([2]; known toxicity flag 1/0): 0
34 | CN[C@H](CC(C)C)C(=O)N[C@H]1C(=O)N[C@@H](CC(N)=O)C(=O)N[C@H]2C(=O)N[C@H]3C(=O)N[C@H](C(=O)N[C@H](C(=O)O)c4cc(O)cc(O)c4-c4cc3ccc4O)[C@H](O)c3ccc(c(Cl)c3)Oc3cc2cc(c3O[C@@H]2O[C@H](CO)[C@@H](O)[C@H](O)[C@H]2O[C@H]2C[C@](C)(N)[C@H](O)[C@H](C)O2)Oc2ccc(cc2Cl)[C@H]1O [Vancomycin hydrochloride] | 0 |  |  |  |  | 
35 | Hydroxypropyl-β-cyclodextrin | 0 |  |  |  |  | 
36 | [K+].[K+].[O]=[Cr](=[O])([O-])[O][Cr](=[O])(=[O])[O-] [Potassium dichromate] |  | Toxic | 1 | 1 | 1 | 
37 | CC(O)(CS(=O)(=O)c1ccc(F)cc1)C(=O)Nc1ccc(C#N)c(C(F)(F)F)c1 (centres unmarked) [Bicalutamide] | 0 |  |  |  |  | 
38 | CN1COCN(Cc2cnc(Cl)s2)/C1=N\[N+](=O)[O-] [Thiamethoxam] | 0 |  |  |  |  | 

Row | Compound | Pulmonotoxic ([1]; human, in vivo) | PTC Toxicity ([2]; human, in vivo) | PTC-toxic ([2]; human, in vivo) | Hepatotoxic [3] | Nephrotoxic ([4]; in vivo) | other results
39 | O=C1CC[C@@]2(O)[C@H]3Cc4ccc(O)c5c4[C@@]2(CCN3CC2CC2)[C@H]1O5 [Naltrexone hydrochloride] | 0 |  |  |  |  | 
40 | O=P1(N(CCCl)CCCl)NCCCO1 (centres unmarked) [Cyclophosphamide] |  |  |  |  |  | Pulmonotoxic ([1]; known toxicity flag 1/0): 1
41 | [Ge+4].[O-2].[O-2] [Germanium(IV) oxide] |  |  |  | 0 |  | PTC Toxicity [2, 5]: Toxic; PTC-toxic ([2]; known toxicity flag 1/0): 1; Nephrotoxic [4, 6]: 1
42 | N[C@@H](Cc1ccc(O)c(O)c1)C(=O)O [Levodopa] |  | Non-toxic |  |  |  | 
43 | CC(O)CCC(=O)c1ccoc1 (centres unmarked) [4-Ipomeanol] |  |  |  |  |  | Pulmonotoxic ([1]; known toxicity flag 1/0): 0
44 | [Cl][Au] [Gold(I) chloride] |  | Toxic | 1 | 1 | 1 | 
45 | [Bi+3].[Bi+3].[O-2].[O-2].[O-2] [Bismuth(III) oxide] |  |  |  | 1 |  | PTC Toxicity [2, 5]: Toxic; PTC-toxic ([2]; known toxicity flag 1/0): 1; Nephrotoxic [4, 6]: 1
46 | CC(=O)C(C)=O [Diacetyl] | 1 |  |  |  |  | 
47 | CC(=O)N1CCN(c2ccc(OCC3COC(Cn4ccnc4)(c4ccc(Cl)cc4Cl)O3)cc2)CC1 (centres unmarked) [Ketoconazole] | 0 |  |  |  |  | 
48 | CCCCc1oc2ccccc2c1C(=O)c1cc(I)c(OCCN(CC)CC)c(I)c1.Cl [Amidoarone hydrochloride] |  |  |  |  |  | Pulmonotoxic ([1]; known toxicity flag 1/0): 1
49 | [Cl][Cu][Cl] [Copper(II) chloride] |  |  |  | 1 |  | PTC Toxicity [2, 5]: Toxic; PTC-toxic ([2]; known toxicity flag 1/0): 1; Nephrotoxic [4, 6]: 1
50 | CO[C@H]1/C=C/O[C@@]2(C)Oc3c(C)c(O)c4c(O)c(c(/C=N/N5CCN(C)CC5)c(O)c4c3C2=O)NC(=O)/C(C)=C\C=C\[C@H](C)[C@H](O)[C@@H](C)[C@@H](O)[C@@H](C)[C@H](OC(C)=O)[C@@H]1C [Rifampicin] |  | Toxic | 1 | 1 | 1 | 
51 | O=C1CN(/N=C/c2ccc([N+](=O)[O-])o2)C(=O)N1 [Nitrofurantoin] | 1 |  |  |  |  | 
52 | C[C@@H]1[C@H](O)[C@@H](C)/C=C/C=C/CC/C=C/C=C/C=C/C=C/C(O[C@H]2O[C@H](C)[C@@H](O)[C@H](N)[C@@H]2O)CC2O[C@](O)(CC(O)C(O)CCC(O)CC(O)CC(O)CC(=O)O[C@H]1C)CC(O)C2C(=O)O (some centres unmarked) [Nystatin] | 0 |  |  |  |  | 
53 | CN(C)[C@@H]1C(O)=C(C(N)=O)C(=O)[C@@]2(O)C(O)=C3C(=O)c4c(O)cccc4[C@@](C)(O)[C@H]3C[C@@H]12 [Tetracycline] |  | Toxic | 1 | 1 | 1 | 
54 | CCC[C@@H]1C[C@@H](C(=O)N[C@@H]([C@H]2O[C@H](SC)[C@H](O)[C@@H](O)[C@H]2O)[C@@H](C)O)N(C)C1 [Lincomycin hydrochloride] | 0 |  |  |  |  | 
55 | CN(Cc1cnc2nc(N)nc(N)c2n1)c1ccc(C(=O)N[C@@H](CCC(=O)O)C(=O)O)cc1 [Methotrexate] | 1 |  |  |  |  | 
56 | C[C@]12CCC(=O)C=C1CC[C@@H]1[C@@H]2[C@@H](O)C[C@@]2(C)[C@H]1CC[C@]2(O)C(=O)CO [Hydrocortisone] |  | Non-toxic | 0 | 0 |  | 
57 | CN[C@H](CC(C)C)C(=O)N[C@H]1C(=O)N[C@@H](CC(N)=O)C(=O)N[C@H]2C(=O)N[C@H]3C(=O)N[C@H](C(=O)N[C@H](C(=O)O)c4cc(O)cc(O)c4-c4cc3ccc4O)[C@H](O)c3ccc(c(Cl)c3)Oc3cc2cc(c3O[C@@H]2O[C@H](CO)[C@@H](O)[C@H](O)[C@H]2O[C@H]2C[C@](C)(N)[C@H](O)[C@H](C)O2)Oc2ccc(cc2Cl)[C@H]1O [Vancomycin] |  | Non-toxic | 0 | 1 | 1 | 
